Test results as given in publication PMC7515912, “Structural insight into the binding of human galectins to corneal keratan sulfate, its desulfated form and related saccharides” (Scientific Reports, 2020).
Where two headings read alike, the source gives them in different places.

How the values were obtained:
Gal-7 = biological target: T1, Gal-7 (Homo sapiens, UniProt P47929); assay: 1H-15N HSQC NMR titration of 15N-labeled Gal-7; assay type: binding
T1 construct: made in house
Procedure: (§1) Uniformly ^15N-labeled Gal-3 (or Gal-7) was dissolved at a concentration of 20 μM in 20 mM potassium phosphate buffer at pH 6.9, made up using a 95% H2O/ 5% D2O mixture. ^1H–^15N HSQC NMR experiments were used to investigate binding of KS or KSDS to Gal-3[39] and Gal-7[90]. NMR experiments were performed at 30 °C on Bruker AVANCE III 700 MHz or 850 MHz spectrometers equipped with cryogenically-cooled z-gradient triple resonance probes. Chemical shift perturbations were monitored, using the sequence-specific ^1H and ^15N resonances assignments for human Gal-3, Gal-3 CRD, and Gal-7. Chemical shifts were internally referenced to DSS (4,4-dimethyl-4-silapentane-1-sulfonic acid). Raw data were converted and processed by using NMRPipe[91] and were analyzed by using NMRview[92].
Chemical shifts, δ, were referenced to 4,4-dimethyl-4-silapentane-1-sulfonic acid, and chemical shift differences (∆δ) were calculated as [(∆^1H)^2 + (0.25∆^15N)^2 ]^1/2. Intensity changes (∆Intensity) were calculated as (1 − Inti/Into), where Into is the initial resonance intensity and Inti is the intensity upon addition of KS or KSDS or another saccharide. Using this equation, a value of 1 means that that resonance is no longer observable, and 0 means the absence of resonance broadening, with a negative value indicating increased resonance intensity. […]

[1] = biological target: T2, Gal-3 FL (full-length human Gal-3, residues 1–250) (Homo sapiens, UniProt P17931); assay: 1H-15N HSQC NMR titration of 15N-labeled full-length Gal-3; assay type: binding
T2 construct: Full-length human Gal-3 (residues 1–250); made in house
T2 sequence (P17931 whole entry, the tested form may be a part): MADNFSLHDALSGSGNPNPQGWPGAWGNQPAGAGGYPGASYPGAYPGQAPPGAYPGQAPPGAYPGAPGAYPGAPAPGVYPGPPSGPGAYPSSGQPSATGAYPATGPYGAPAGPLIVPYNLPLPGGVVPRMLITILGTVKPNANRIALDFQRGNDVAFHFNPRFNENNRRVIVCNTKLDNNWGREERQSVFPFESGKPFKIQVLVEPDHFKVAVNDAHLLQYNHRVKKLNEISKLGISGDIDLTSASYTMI
Procedure: as §1
(§2) Chemical shifts, δ, were referenced to 4,4-dimethyl-4-silapentane-1-sulfonic acid, and chemical shift differences (∆δ) were calculated as [(∆^1H)^2 + (0.25∆^15N)^2 ]^1/2. Intensity changes (∆Intensity) were calculated as (1 − Inti/Into), where Into is the initial resonance intensity and Inti is the intensity upon addition of KS or KSDS or another saccharide. Using this equation, a value of 1 means that that resonance is no longer observable, and 0 means the absence of resonance broadening, with a negative value indicating increased resonance intensity. In chemical shift or resonance broadening maps, the most perturbed resonances are defined as > 2SD above the average or > 1SD above the average. The 50% bound mark was taken from titration curves at 50% bound.

[2] = biological target: T3, Gal-3 CRD (residues 108–250) (Homo sapiens, UniProt P17931); assay: 1H-15N HSQC NMR titration of 15N-labeled Gal-3 CRD; assay type: binding
T3 construct: its Gal-3 CRD (residues 108–250); made in house
T3 sequence (P17931 108-250): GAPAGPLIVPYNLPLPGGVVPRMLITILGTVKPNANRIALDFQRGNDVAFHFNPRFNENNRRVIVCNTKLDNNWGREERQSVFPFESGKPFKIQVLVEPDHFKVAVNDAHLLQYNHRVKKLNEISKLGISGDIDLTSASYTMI
Procedure: as §1, §2

[3] = PFG NMR self-diffusion of KS alone; assay type: physicochemical; conditions: KS 4 μM in the absence of Gal-3; 20 mM potassium phosphate in 2H2O, pD 6.7, 30 °C
Procedure: (§3) For pulsed field gradient (PFG) NMR self-diffusion measurements, a solution was made up with KS (4 μM) in 20 mM potassium phosphate buffer with ^2H2O at pD 6.7 adjusted by addition of NaO^2H or ^2HCl. To this solution, ^15N/^13C-labeled Gal-3 (full-length and CRD) dissolved in the same buffer was added at increasing concentrations as molar ratios of [Gal-3]/[KS]. PFG NMR data were acquired at 30 ◦C on a Bruker AVANCE 700 spectrometer, essentially as previously described. For unrestricted diffusion of molecules in isotropic solutions, the PFG NMR signal amplitude, A, normalized to the signal in the absence of gradient pulses, is related to the diffusion coefficient D by Eq. (1):1 A=exp[-γ^2g^2Δ^2D(Δ-[…])]
(§4) where γ is the gyromagnetic ratio, g is the magnitude of the magnetic field gradient pulse, ∆ is the time between gradient pulses. Here, we set g = 1–75 G/cm, ∆ = 34.2 ms, with a longitudinal eddy-current delay of 100 ms. Each D value was determined from a series of 14 1D PFG NMR spectra (256 scans each) using different g values. To derive D values, the gradient-induced change in amplitude of KS resonances at 3.64 and 3.7 ppm was used. In this spectral region, KS resonance intensity was considerably greater than that from Gal-3. In order to decrease Gal-3 resonance intensity further, ^13CH and ^15NH resonances from labeled Gal-3 were not decoupled.

[4] = biological target: Gal-3 (full-length and CRD) (Homo sapiens, UniProt P17931); assay: PFG NMR diffusion of KS as a function of Gal-3/KS molar ratio; assay type: binding
Chain of Gal-3 (full-length and CRD) (P17931 108-250 limits assumed): as the sequence (P17931 108-250) above
Procedure: as §3, §4

T1 sequence (P47929 whole entry): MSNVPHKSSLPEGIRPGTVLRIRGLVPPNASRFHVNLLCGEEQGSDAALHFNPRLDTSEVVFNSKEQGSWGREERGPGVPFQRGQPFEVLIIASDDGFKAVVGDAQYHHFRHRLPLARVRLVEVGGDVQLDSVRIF

With `CC(=O)N[C@H]1[C@H](O[C@H]2[C@@H](O)[C@@H](CO)O[C@@H](O[C@H]3[C@H](O)[C@@H](O)C(O)O[C@@H]3CO)[C@@H]2O)O[C@H](CO)[C@@H](O)[C@@H]1O[C@@H]1O[C@H](CO)[C@H](O)[C@H](O)[C@H]1O` (some centres unmarked) [LNT, lacto-N-tetraose, reference compound] as the compound, how does the Kd (Gal-7; fast exchange, from average ∆δ vs ligand concentration, Gal-7, pH 6.9, 30 °C, read-out: KD) read?
Its Kd is ~500 µM.

For `CC(=O)N[C@H]1C(O)O[C@H](CO)[C@@H](O[C@@H]2O[C@H](CO)[C@H](O)[C@H](O)[C@H]2O)[C@@H]1O` (some centres unmarked) [LacNAc, N-acetyllactosamine, reference compound], which Kd ([1]; fast exchange, from chemical shifts vs ligand concentration, Gal-3 FL 20 μM, pH 6.9, 30 °C, read-out: KD) is on record?
The Kd was 190 µM.

And the Kd ([2]; fast exchange, from chemical shifts vs ligand concentration, Gal-3 CRD 20 μM, pH 6.9, 30 °C, read-out: KD)?
Its Kd is 380 µM.

What does the source list for keratan sulfate [KS]?
Kd ([1]; 2 μM × 17 sites, assumes the same stoichiometry as KSDS, Gal-3 FL, read-out: site-average microscopic KD): 34 µM; Kd ([1]; apparent affinity/avidity from average ∆δ vs ligand concentration, 20 μM Gal-3 FL, 20 mM KPhos, pH 6.9, 30 °C, read-out: 50% change in chemical shift / 50% lectin bound (ligand concentration)): ~2 µM; Kd ([2]; 7 μM × 22 sites, assumes the same stoichiometry as KSDS, Gal-3 CRD, read-out: site-average microscopic KD): 154 µM; Kd ([2]; apparent affinity/avidity from average ∆δ vs ligand concentration, 20 μM Gal-3 CRD, 20 mM KPhos, pH 6.9, 30 °C, read-out: 50% change in chemical shift / 50% lectin bound (ligand concentration)): ~7 µM; Kd (Gal-7; binding avidity estimated from average ∆δ vs glycosaminoglycan concentration, 20 μM Gal-7, pH 6.9, 30 °C, read-out: 50% Gal-7 loaded with ligand (ligand concentration)): ~4.5 µM; diffusion coefficient D [3]: 0.92 × 10^–6 cm^2/s^-1; binding stoichiometry, Gal-3 molecules per KS molecule ([4]; D trend continues to Gal-3/KS molar ratio of ~6 to 8, both Gal-3 FL and CRD): ≤ 8; decrease of KS D value ([4]; upon addition of one mole equivalent of Gal-3): about 40%
